Data published in patent US20110033883A1, “IMAGING DYES AND USE THEREOF” (priority 2007, published 2011).
Ru(bpy)2(pic) = [Ru(bpy)2(piCH2)]2+ complex, attached to the peptide through a hexyl spacer; Ahx = NCCCCCC(=O)O

Columns and labels:
[1] = test system: bovine aortic epithelial (BAE) cells; experiment: Confocal luminescence imaging of bovine aortic epithelial (BAE) cells; format: cell-based; settings: BAE cells in PBS buffer, 22° C., excitation 458 nm
Protocol: Bovine aortic endothelium cells were supplied by Dr PM Cummins and cultured as described in Colgon et al.
Here it has been used to image emission spectrum (left) and a confocal image at a excitation wavelength of 458 nm (right) of bovine aortic epithelial (BAE) cells. The dyes were incubated at 22° C. with BAE cells in PBS buffer.

[2] = test system: mouse SP2/0 myeloma cells; experiment: Resonance Raman mapping of myeloma cells; format: cell-based; settings: mouse SP2/0 myeloma cells, pH 7.4 PBS, cells washed
Protocol: (§1) Resonance Raman spectroscopy was performed on a Horiba Jobin Yvon HR800UV confocal microscope using an Argon ion Laser (458 nm or 514 nm) or a Helium-Neon (HeNe) laser (633 nm) as the exciting wavelength. Ten spectral acquisitions were accumulated and each acquisition was two seconds in length. Steady-state emission spectra were recorded on a Cary Eclipse Fluorescence spectrophotometer, and luminescence lifetimes were obtained using a Picoquant Fluotime 100 TCSPC system exciting at 470 nm and detecting at 600 nm using a narrow band pass dielectric filter. Quantum yields were measured using the comparative method described by Williams et al. In quenching studies, the luminophore/quencher concentrations were corrected for dilution.
For the fluorescence and fluorescence lifetime experiments 100 μl aliquots were used and incubated with the 3 μl of the Ru-octopeptide (1.2 mM), resulting in a final dye concentration of 3.5×10^−5 M. If only resonance Raman experiments were performed, the cells were incubated in the medium with dye for 15 minutes prior to the washing step.
The resonance Raman maps of the stained myeloma cells were analyzed using the modelling option implemented in the LabSpec software. A model with 4 components was creating, grouping together similar spectra in one component (background, where there is no dye/no cell, outer cell (membrane), cytoplasm and nucleus). […]

[3] = pH titration, ground-state pKa (UV/vis absorption, Henderson-Hasselbalch fit); format: physicochemical
Protocol: ^1H NMR spectra were recorded on a Bruker Advance series 400 MHz NMR spectrometer. The NMR titration experiments were performed following a previously published protocol (Charbonnier and Penades). Mass spectra were acquired using a positive ion mode on a Bruker LC/MS Esquire. Electronic absorption spectra were measured on a Shimadzu 3500 UV-VIS/NIR spectrophotometer. Cyclic voltammetry was carried out using a CH Instruments CH602 electrochemical workstation. A conventional three-electrode cell was used, employing glassy carbon as working, Ag/AgCl as reference or Ag/AgNO3 in acetonitrile, and Pt wire as counter electrodes. Electrochemistry was conducted in water and acetonitrile respectively with 0.1 M phosphate buffer or tetrabutylammonium tetrafluoroborate (TBABF4) as supporting electrolyte under an N2 atmosphere. pH titrations were performed in the pH range 0.5-12. The pH was adjusted by adding aqueous solutions of NaOH or HClO4.
The pH was adjusted with H2SO4 (Sigma-Aldrich) and KOH (Sigma-Aldrich) and measured with a pH meter. UV/vis absorption spectra during the pH titration experiment were corrected for change in volume.
UV/vis absorption titration curves were fitted with a modified Henderson-Hasselbalch equation which was obtained using Beer-Lambert's law to express the concentration, FIG. 2(b) For fitting the fluorescence titration curve it was assumed that the average lifetime goes linear with the ratio of the two species in equilibrium at the certain pH.
At a shorter wavelength the ππ* transitions centred at the ligands are found: around 350 nm the ππ* transition at the pic ligand, and around 280 nm at the bipyridine ligands. […] The increasing absorption with increasing pH at 350 nm is plotted in FIG. 13B. Fitting this curve with a modified Henderson-Hasselbalch equation results in a pKa1 of 1.72±0.07 and pKa2 of 8.16±0.03. As expected the pH dependence of the other bands is rather minor.

[4] = pH dependence of resonance Raman peak ratios; format: physicochemical; settings: ratio of peaks at 1575 and 1317 cm^-1, 458 nm excitation
Protocol: as §1
To evaluate the pH dependence of the resonance Raman data peak ratios were calculated with Labspec5 software. A baseline was drawn along the base of the peak and the area was calculated. Regions for the peaks were 1700 to 1400 cm^−1. The ratio of the peaks for the different protonation states […] 5 replica measurements were recorded for each pH and averaged.
As the pH changes, the pic moiety can be protonated or deprotonated, while the bpy moieties should stay mainly unaffected by changes in pH. […]

[Ru(bpy)2(pic-KVG)]^n+: [Ru(bpy)2(piCH2)]^2+ attached through a hexyl spacer to KVGFFKR-NH2 (SEQ ID No. 20) ({Ru(bpy)2(pic)-Ahx}-KVGFFKR-NH2; also: ruthenium complex, charge n+)
localisation of the dye in the cells (luminescence image) [1]: concentrates in the membrane

[Ru(dppz)2(PicH2)]ClO4 [[Ru(dppz)2PICH2]^2+]
entry into the cell (resonance Raman imaging) [2]: only interacted with the membrane but did not cross it

[Ru(bpy)2(PicH2)](PF6)2 [[Ru-LH]^2+]
pKa of ionisable site at the imidazole (higher) [3]: 8.5
pKa of ionisable site at the imidazole (lower) [3]: 1.6
pKa from ratio of resonance Raman peaks [4]: 8.5±0.2
